What follows are compounds tested against T1, HIV-integrase (Human immunodeficiency virus type 1 group M subtype B, UniProt P12497) (assay: HIV-Integrase Inhibition Activity (SPA bead integration assay with P33 labeled target DNA)). Conditions: recombinant integrase, class symbols; read-out: in vitro activity.
T1 construct: Recombinant integrase (0.26 ng) was incubated with the beads
Assay type: biochemical
In short: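 Biotinylated substrate DNA on streptavidin SPA beads loaded with recombinant integrase (90 min, 37° C), washed, then inhibitor plus 0.1 fmol P33-labeled target DNA added. Reaction stopped with 10 mM EDTA; integration measured as CPM by scintillation, giving IC50 ranks.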

`Cn1nnc(C(=O)NC23CCC(CC2)Cn2c3nc(C(=O)NCc3ccc(F)cc3)c(O)c2=O)n1` [Example 250, 7,10-Ethanopyrimido[1,2-a]azepine-2-carboxamide, N-[(4-fluorophenyl)methyl]-4,6,7,8,9,10-hexahydro-3-hydroxy-10-[[(2-methyl-2H-tetrazol-5-yl)carbonyl]amino]-4-oxo-] and `Cn1nnnc1C(=O)NC12CCC(CC1)Cn1c2nc(C(=O)NCc2ccc(F)cc2)c(O)c1=O` [Example 249, 7,10-Ethanopyrimido[1,2-a]azepine-2-carboxamide, N-[(4-fluorophenyl)methyl]-4,6,7,8,9,10-hexahydro-3-hydroxy-10-[[(1-methyl-1H-tetrazol-5-yl)carbonyl]amino]-4-oxo-] cannot be ordered by IC50: less than 10 nM for the first, less than 10 nM for the second.

`CN(C)C(=O)C(=O)NC12CCC(CCn3c1nc(C(=O)NCc1ccc(F)cc1)c(O)c3=O)C2` (stereo not drawn) [Example 199, Ethanediamide, N′-[2-[[[(4-fluorophenyl)methyl]amino]carbonyl]-7,8,9,10-tetrahydro-3-hydroxy-4-oxo-8,11-methano-4H-pyrimido[1,2-a]azocin-11(6H)-yl]-N,N-dimethyl-] and `CN(C)C(=O)C(=O)NC12COC(CCn3c1nc(C(=O)NCc1ccc(F)cc1)c(O)c3=O)C2` (stereo not drawn) [Example 218, N′-(2-((4-Fluorobenzyl)carbamoyl)-3-hydroxy-4-oxo-7,8-dihydro-4 H,6H-8,11-methanopyrimido[2,1-d][1,5]oxazocin-11(10H)-yl)-N,N-dimethylethanediamide] cannot be ordered by IC50: less than 10 nM for the first, less than 10 nM for the second.

`O=C(NC12CCC(CCn3c1nc(C(=O)NCc1ccc(F)c(Cl)c1)c(O)c3=O)C2)C(=O)N1CC[C@@H](F)C1` (stereo partly drawn) [Example 215, 8,11-Methano-4H-pyrimido[1,2-a]azocine-2-carboxamide, N-[(3-chloro-4-fluorophenyl)methyl]-11-[[2-[(3R)-3-fluoro-1-pyrrolidinyl]-1,2-dioxoethyl]amino]-6,7,8,9,10,11-hexahydro-3-hydroxy-4-oxo-] and `O=C(N[C@]12CC[C@H](CCn3c1nc(C(=O)NCc1ccc(F)cc1)c(O)c3=O)C2)C(=O)N1CC[C@@H](F)C1` [Example 417, 8,1,1-Methano-4H-pyrimido[1,2-a]azocine-2-carboxamide, N-[(4-fluorophenyl)methyl]-11-[[2-[(3R)-3-fluoro-1-pyrrolidinyl]-1,2-dioxoethyl]amino]-6,7,8,9,10,11-hexahydro-3-hydroxy-4-oxo-, (8R,11S)—] cannot be ordered by IC50: less than 10 nM for the first, less than 10 nM for the second.

`CN(C)C(=O)[C@@H]1CCCN1C(=O)C(=O)NC12CCC(CC1)Cn1c2nc(C(=O)NCc2ccc(F)cc2)c(O)c1=O` [Example 91, 10-((((2S)-2-(Dimethylcarbamoyl)-1-pyrrolidinyl) (oxo)acetyl)amino)-N-(4-fluorobenzyl)-3-hydroxy-4-oxo-4,6,7,8,9,10-hexahydro-7,11-ethanopyrimido[1,2-a]azepine-2-carboxamide] and `CC(=O)N1CCCC[C@H]1C(=O)NC12CCC(CC1)Cn1c2nc(C(=O)NCc2ccc(F)cc2)c(O)c1=O` [Example 265, 7,10-Ethanopyrimido[1,2-a]azepine-2-carboxamide, 10-[[[(2S)-1-acetyl-2-piperidinyl]carbonyl]amino]-N-[(4-fluorophenyl)methyl]-4,6,7,8,9,10-hexahydro-3-hydroxy-4-oxo-] cannot be ordered by IC50: less than 10 nM for the first, less than 10 nM for the second.

`CNC(=O)c1cn(C(C)(C)C(=O)NC23CCC(CC2)Cn2c3nc(C(=O)NCc3ccc(F)c(C)c3)c(O)c2=O)nn1` [Example 286, 7,10-Ethanopyrimido[1,2-a]azepine-2-carboxamide, N-[(4-fluoro-3-methylphenyl)methyl]-4,6,7,8,9,10-hexahydro-3-hydroxy-10-[[2-methyl-2-[4-[(methylamino)carbonyl]-1H-1,2,3-triazol-1-yl]-1-oxopropyl]amino]-4-oxo-] and `CNC(=O)NC12CCC(CC1)Cn1c2nc(C(=O)NCc2ccc(F)c(C)c2)c(O)c1=O` [Example 327, 7,10-Ethanopyrimido[1,2-a]azepine-2-carboxamide, N-[(4-fluoro-3-methylphenyl)methyl]-4,6,7,8,9,10-hexahydro-3-hydroxy-10-[[(methylamino)carbonyl]amino]-4-oxo-] cannot be ordered by IC50: less than 10 nM for the first, less than 10 nM for the second.

`Cc1nn(C)cc1CN(C)C(=O)C(=O)NC12CCC(CC1)Cn1c2nc(C(=O)NCc2ccc(F)cc2)c(O)c1=O` [Example 96, N-((1,3-Dimethyl-1H-pyrazol-4-yl)methyl)-N′-(2-((4-fluorobenzyl)carbamoyl)-3-hydroxy-4-oxo-6,7,8,9-tetrahydro-7,10-ethanopyrimido[1,2-a]azepin-10(4H)-yl)-N-methylethanediamide] and `COCCN(C)C(=O)C(=O)NC12CCC(CC1)Cn1c2nc(C(=O)NCc2ccc(F)cc2)c(O)c1=O` [Example 100, N′-(2-((4-Fluorobenzyl)carbamoyl)-3-hydroxy-4-oxo-6,7,8,9-tetrahydro-7,10-ethanopyrimido[1,2-a]azepin-10(4H)-yl)-N-(2-methoxyethyl)-N-methylethanediamide] cannot be ordered by IC50: less than 10 nM for the first, less than 10 nM for the second.

First: CC1(C)[C@@H]2CC[C@@]1(C)[C@@H](NC(=O)OCc1ccccc1)c1nc(C(=O)NCc3ccc(F)cc3)c(O)c(=O)n1C2 [Example 181, Benzyl((7S,10R,11R)-2-((4-fluorobenzyl)carbamoyl)-3-hydroxy-10,12,12-trimethyl-4-oxo-6,7,8,9,10,11-hexahydro-4H-7,10-methanopyrimido[1,2-a]azocin-11-yl)carbamate]
Second: Cn1cccc1C(=O)C(=O)NC12CCC(CC1)Cn1c2nc(C(=O)NCc2ccc(F)cc2)c(O)c1=O [Example 45, N-(4-Fluorobenzyl)-3-hydroxy-10-(((1-methyl-1H-pyrrol-2-yl) (oxo)acetyl)amino)-4-oxo-4,6,7,8,9,10-hexahydro-7,10-ethanopyrimido[1,2-a]azepine-2-carboxamide]
The IC50 of the first is higher: 10 to 100 nM for the first, less than 10 nM for the second.

First: CN(C)C(=O)C(=O)NC12CCC(CC1)Cn1c2nc(C(=O)NC2CCN(Cc3ccccc3)C2)c(O)c1=O (stereo not drawn) [Example 356]
Second: CN(C)C(=O)C(=O)NC12CCC(CC1)Cn1c2nc(C(=O)NCCOc2ccccc2)c(O)c1=O [Example 355]
The IC50 of the first is higher: greater than 100 nM for the first, less than 10 nM for the second. The second is the more potent here.

`CN(C(=O)c1ccncc1)C12CCC(CC1)Cn1c2nc(C(=O)NCc2ccc(F)cc2)c(O)c1=O` [Example 310, 7,10-Ethanopyrimido[1,2-a]azepine-2-carboxamide, N-[(4-fluorophenyl)methyl]-4,6,7,8,9,10-hexahydro-3-hydroxy-10-[methyl(4-pyridinylcarbonyl)amino]-4-oxo-] and `Cn1ccnc1C(=O)NC12CCC(CC1)Cn1c2nc(C(=O)NCc2ccc(F)cc2)c(O)c1=O` [Example 49, N-(4-Fluorobenzyl)-3-hydroxy-10-(((1-methyl-1H-imidazol-2-yl)carbonyl)amino)-4-oxo-4,6,7,8,9,10-hexahydro-7,11-ethanopyrimido[1,2-a]azepine-2-carboxamide] cannot be ordered by IC50: less than 10 nM for the first, less than 10 nM for the second.

First: NC(=S)NC12CCC(CC1)Cn1c2nc(C(=O)NCc2ccc(F)cc2)c(O)c1=O [Example 333, 7,10-Ethanopyrimido[1,2-a]azepine-2-carboxamide, 10-[(aminothioxomethyl)amino]-N-[(4-fluorophenyl)methyl]-4,6,7,8,9,10-hexahydro-3-hydroxy-4-oxo-]
Second: O=C(NCc1ccc(F)cc1)c1nc2n(c(=O)c1O)CC1CCC2(NC(=O)N2CCOCC2)CC1 [Example 22, N-(4-Fluorobenzyl)-3-hydroxy-10-((4-morpholinylcarbonyl)amino)-4-oxo-4,6,7,8,9,10-hexahydro-7,10-ethanopyrimido[1,2-a]azepine-2-carboxamide]
The IC50 of the first is lower: less than 10 nM for the first, 10 to 100 nM for the second.

`Cc1cc(CNC(=O)c2nc3n(c(=O)c2O)CC2CCC3(NC(=O)C(=O)N(C)C)C2)ccc1F` (stereo not drawn) [Example 196, Ethanediamide, N′-[2-[[[(4-fluoro-3-methylphenyl)methyl]amino]carbonyl]-6,7,8,9-tetrahydro-3-hydroxy-4-oxo-7,10-methanopyrimido[1,2-a]azepin-10(4H)-yl]-N,N-dimethyl-] and `COc1ccc(CNC(=O)c2nc3n(c(=O)c2O)CC2CCC3(NC(=O)C(=O)N(C)C)CC2)cc1` [Example 375] cannot be ordered by IC50: less than 10 nM for the first, less than 10 nM for the second.

`O=C(CN1CCCC1=O)NC12CCC(CC1)Cn1c2nc(C(=O)NCc2ccc(F)cc2)c(O)c1=O` [Example 43, N-(4-Fluorobenzyl)-3-hydroxy-4-oxo-10-(((2-oxo-1-pyrrolidinyl)acetyl)amino)-4,6,7,8,9,10-hexahydro-7,10-ethanopyrimido[1,2-a]azepine-2-carboxamide] and `O=C(NC12CCC(CC1)Cn1c2nc(C(=O)NCc2ccc(F)cc2)c(O)c1=O)C(=O)N1CCOCC1` [Example 60, N-(4-Fluorobenzyl)-3-hydroxy-10-((4-morpholinyl(oxo)acetyl)amino)-4-oxo-4,6,7,8,9,10-hexahydro-7,10-ethanopyrimido[1,2-a]azepine-2-carboxamide] cannot be ordered by IC50: less than 10 nM for the first, less than 10 nM for the second.

`COC1CCN(C(=O)C(=O)NC23CCC(CC2)Cn2c3nc(C(=O)NCc3ccc(F)cc3)c(O)c2=O)C1` (stereo not drawn) [Example 90, N-(4-Fluorobenzyl)-3-hydroxy-10-(((3-methoxy-1-pyrrolidinyl)(oxo)acetyl)amino)-4-oxo-4,6,7,8,9,10-hexahydro-7,10-ethanopyrimido[1,2-a]azepine-2-carboxamide] and `CO[C@H]1C[C@@H](C(=O)NC23CCC(CC2)Cn2c3nc(C(=O)NCc3ccc(F)cc3)c(O)c2=O)N(C(C)=O)C1` [Example 271, 7,10-Ethanopyrimido[1,2-a]azepine-2-carboxamide, 10-[[[(2S,4S)-1-acetyl-4-methoxy-2-pyrrolidinyl]carbonyl]amino]-N-[(4-fluorophenyl)methyl]-4,6,7,8,9,10-hexahydro-3-hydroxy-4-oxo-] cannot be ordered by IC50: less than 10 nM for the first, less than 10 nM for the second.

`O=C(NC12CCC(CC1)Cn1c2nc(C(=O)NCc2ccc(F)cc2)c(O)c1=O)c1ccc(C(F)(F)F)nc1` [Example 323, 7,10-Ethanopyrimido[1,2-a]azepine-2-carboxamide, N-[(4-fluorophenyl)methyl]-4,6,7,8,9,10-hexahydro-3-hydroxy-4-oxo-10-[[[6-(trifluoromethyl)-3-pyridinyl]carbonyl]amino]-] showed an IC50 of less than 10 nM.

From US8129398B2 (priority 2008, dated 2012)
